From the NIST ThermoML archive (doi:10.1016/j.tca.2010.12.008)

Assay: molar heat capacity at constant pressure
Conditions: 101.33 kPa

CC(C)(C)P(=O)(O)C(C)(C)C [di-tert-butylphosphinic acid]
Conditions | molar heat capacity at constant pressure [J/K/mol]
2.277 K, Crystal 2 | 0.028
2.67 K, Crystal 2 | 0.056
3.092 K, Crystal 2 | 0.169
3.71 K, Crystal 2 | 0.338
4.497 K, Crystal 2 | 0.591
5.284 K, Crystal 2 | 0.929
5.987 K, Crystal 2 | 1.352
6.633 K, Crystal 2 | 1.83
7.223 K, Crystal 2 | 2.337
7.813 K, Crystal 2 | 2.872
8.404 K, Crystal 2 | 3.548
9.078 K, Crystal 2 | 4.337
9.808 K, Crystal 2 | 5.322
10.74 K, Crystal 2 | 6.589
11.66 K, Crystal 2 | 7.941
12.56 K, Crystal 2 | 9.405
13.52 K, Crystal 2 | 10.93
14.44 K, Crystal 2 | 12.42
15.34 K, Crystal 2 | 13.94
16.24 K, Crystal 2 | 15.46
17.17 K, Crystal 2 | 17.04
18.15 K, Crystal 2 | 18.7
19.22 K, Crystal 2 | 20.47
20.32 K, Crystal 2 | 22.27
21.3 K, Crystal 2 | 23.93
22.28 K, Crystal 2 | 25.54
23.29 K, Crystal 2 | 27.17
24.3 K, Crystal 2 | 28.84
25.37 K, Crystal 2 | 30.69
26.44 K, Crystal 2 | 32.05
27.48 K, Crystal 2 | 33.54
28.6 K, Crystal 2 | 35.23
29.67 K, Crystal 2 | 36.78
30.74 K, Crystal 2 | 38.47
31.78 K, Crystal 2 | 40.07
32.82 K, Crystal 2 | 41.87
34.73 K, Crystal 2 | 45.11
35.2 K, Crystal 2 | 46.01
35.88 K, Crystal 2 | 47.28
36.58 K, Crystal 2 | 48.41
37.37 K, Crystal 1 | 47.62
38.02 K, Crystal 1 | 45.28
38.77 K, Crystal 1 | 45.25
39.59 K, Crystal 1 | 45.81
40.38 K, Crystal 1 | 46.52
41.16 K, Crystal 1 | 47.25
41.95 K, Crystal 1 | 48.01
42.74 K, Crystal 1 | 48.77
43.55 K, Crystal 1 | 49.65
44.37 K, Crystal 1 | 50.52
45.18 K, Crystal 1 | 51.33
46 K, Crystal 1 | 52.18
46.84 K, Crystal 1 | 53.05
47.66 K, Crystal 1 | 53.9
48.47 K, Crystal 1 | 54.74
49.31 K, Crystal 1 | 55.53
50.1 K, Crystal 1 | 56.32
50.97 K, Crystal 1 | 57.08
51.81 K, Crystal 1 | 57.9
52.63 K, Crystal 1 | 58.8
53.44 K, Crystal 1 | 59.56
54.29 K, Crystal 1 | 60.43
55.1 K, Crystal 1 | 61.3
55.94 K, Crystal 1 | 62.17
56.79 K, Crystal 1 | 63.08
57.66 K, Crystal 1 | 63.98
58.67 K, Crystal 1 | 65.08
59.34 K, Crystal 1 | 65.81
60.19 K, Crystal 1 | 66.74
61 K, Crystal 1 | 67.64
61.65 K, Crystal 1 | 68.31
62.63 K, Crystal 1 | 69.41
63.11 K, Crystal 1 | 69.95
63.56 K, Crystal 1 | 70.45
64.57 K, Crystal 1 | 71.58
65.27 K, Crystal 1 | 72.4
66 K, Crystal 1 | 73.16
66.9 K, Crystal 1 | 74.2
67.41 K, Crystal 1 | 74.76
67.94 K, Crystal 1 | 75.35
68.9 K, Crystal 1 | 76.37
69.57 K, Crystal 1 | 77.21
70.28 K, Crystal 1 | 77.94
70.64 K, Crystal 1 | 78.42
71.23 K, Crystal 1 | 79.24
71.62 K, Crystal 1 | 79.66
81.51 K, Crystal 1 | 92.05
82.47 K, Crystal 1 | 93.11
83.42 K, Crystal 1 | 94.18
84.38 K, Crystal 1 | 95.24
85.33 K, Crystal 1 | 96.41
86.29 K, Crystal 1 | 97.48
87.35 K, Crystal 1 | 98.65
88.31 K, Crystal 1 | 99.82
89.26 K, Crystal 1 | 100.89
90.32 K, Crystal 1 | 102.06
91.28 K, Crystal 1 | 103.23
92.34 K, Crystal 1 | 104.4
93.3 K, Crystal 1 | 105.58
94.36 K, Crystal 1 | 106.75
95.31 K, Crystal 1 | 107.81
96.27 K, Crystal 1 | 109.09
97.33 K, Crystal 1 | 110.16
98.39 K, Crystal 1 | 111.33
99.34 K, Crystal 1 | 112.39
100.41 K, Crystal 1 | 113.56
101.47 K, Crystal 1 | 114.74
102.53 K, Crystal 1 | 115.8
103.59 K, Crystal 1 | 116.97
104.55 K, Crystal 1 | 118.04
105.71 K, Crystal 1 | 119.32
106.78 K, Crystal 1 | 120.49
107.84 K, Crystal 1 | 121.56
108.9 K, Crystal 1 | 122.73
109.96 K, Crystal 1 | 123.9
111.02 K, Crystal 1 | 124.96
112.08 K, Crystal 1 | 126.24
113.14 K, Crystal 1 | 127.31
114.2 K, Crystal 1 | 128.48
115.27 K, Crystal 1 | 129.54
116.43 K, Crystal 1 | 130.61
117.5 K, Crystal 1 | 131.89
118.56 K, Crystal 1 | 133.17
119.72 K, Crystal 1 | 134.34
120.79 K, Crystal 1 | 135.3
121.95 K, Crystal 1 | 136.47
123.12 K, Crystal 1 | 137.64
124.18 K, Crystal 1 | 138.92
125.35 K, Crystal 1 | 139.99
126.52 K, Crystal 1 | 141.05
127.69 K, Crystal 1 | 142.22
128.85 K, Crystal 1 | 143.4
130.02 K, Crystal 1 | 144.57
131.19 K, Crystal 1 | 145.74
132.46 K, Crystal 1 | 147.02
133.53 K, Crystal 1 | 148.19
134.69 K, Crystal 1 | 149.04
135.75 K, Crystal 1 | 150.32
137.24 K, Crystal 1 | 151.28
138.41 K, Crystal 1 | 152.45
139.58 K, Crystal 1 | 153.52
141.06 K, Crystal 1 | 154.79
142.44 K, Crystal 1 | 156.07
143.93 K, Crystal 1 | 157.56
145.2 K, Crystal 1 | 158.74
146.69 K, Crystal 1 | 160.12
148.18 K, Crystal 1 | 161.4
149.88 K, Crystal 1 | 163
151.25 K, Crystal 1 | 164.38
152.74 K, Crystal 1 | 165.77
154.33 K, Crystal 1 | 167.04
155.61 K, Crystal 1 | 168.32
157.31 K, Crystal 1 | 169.71
158.79 K, Crystal 1 | 170.99
160.17 K, Crystal 1 | 172.37
162.09 K, Crystal 1 | 173.76
163.68 K, Crystal 1 | 175.25
164.95 K, Crystal 1 | 176.42
166.76 K, Crystal 1 | 177.81
168.24 K, Crystal 1 | 179.3
169.94 K, Crystal 1 | 180.79
171.64 K, Crystal 1 | 182.28
173.34 K, Crystal 1 | 183.77
174.83 K, Crystal 1 | 185.05
176.74 K, Crystal 1 | 186.86
182.79 K, Crystal 1 | 191.66
183.96 K, Crystal 1 | 192.72
185.13 K, Crystal 1 | 193.79
186.61 K, Crystal 1 | 195.06
188.1 K, Crystal 1 | 196.24
189.16 K, Crystal 1 | 197.3
190.75 K, Crystal 1 | 198.37
192.13 K, Crystal 1 | 199.65
193.62 K, Crystal 1 | 200.92
195.11 K, Crystal 1 | 202.2
196.49 K, Crystal 1 | 203.37
198.08 K, Crystal 1 | 204.65
199.57 K, Crystal 1 | 205.72
201.16 K, Crystal 1 | 207.1
202.65 K, Crystal 1 | 208.27
204.13 K, Crystal 1 | 209.55
205.72 K, Crystal 1 | 210.72
207.32 K, Crystal 1 | 212
209.02 K, Crystal 1 | 213.18
210.5 K, Crystal 1 | 214.45
212.31 K, Crystal 1 | 215.73
213.8 K, Crystal 1 | 217.01
215.5 K, Crystal 1 | 218.5
217.3 K, Crystal 1 | 219.78
218.89 K, Crystal 1 | 221.16
220.7 K, Crystal 1 | 222.76
222.5 K, Crystal 1 | 224.04
224.31 K, Crystal 1 | 225.53
225.9 K, Crystal 1 | 227.24
227.81 K, Crystal 1 | 228.62
229.72 K, Crystal 1 | 230.11
231.53 K, Crystal 1 | 231.82
233.23 K, Crystal 1 | 233.2
235.03 K, Crystal 1 | 234.69
236.84 K, Crystal 1 | 236.08
238.85 K, Crystal 1 | 237.57
240.66 K, Crystal 1 | 239.06
242.78 K, Crystal 1 | 240.77
244.7 K, Crystal 1 | 242.15
246.61 K, Crystal 1 | 243.75
248.52 K, Crystal 1 | 245.35
250.54 K, Crystal 1 | 247.05
252.55 K, Crystal 1 | 248.76
254.57 K, Crystal 1 | 250.25
256.59 K, Crystal 1 | 251.85
258.71 K, Crystal 1 | 253.44
260.62 K, Crystal 1 | 255.26
262.75 K, Crystal 1 | 257.07
264.98 K, Crystal 1 | 258.77
266.89 K, Crystal 1 | 260.69
269.22 K, Crystal 1 | 262.39
271.35 K, Crystal 1 | 264.63
273.37 K, Crystal 1 | 265.91
275.7 K, Crystal 1 | 267.4
277.82 K, Crystal 1 | 269.32
280.27 K, Crystal 1 | 271.45
282.18 K, Crystal 1 | 272.62
284.62 K, Crystal 1 | 274.96
286.96 K, Crystal 1 | 276.99
289.29 K, Crystal 1 | 279.01
291.63 K, Crystal 1 | 281.14
293.64 K, Crystal 1 | 283.17
295.98 K, Crystal 1 | 283.49
